Experimental data published in patent publication US5190924A, “Peptide amides and amide dimers useful as muscle relaxants” (BOC Health Care, Inc., priority 1991, dated 1993).
Read-outs that look alike come from different tables or passages of the source.

Key:
neuromuscular junction [1] = test: Mouse inclined screen grip strength test; assay type: in vivo; settings: mice on 45° inclined screen; dose required to inhibit grip strength
Method: The first step, in mice, establishes a preliminary estimate of the potency and efficacy of the compounds. The animals were placed on a screen, inclined 45° to the horizontal. Effective doses caused the mice to lose their grip and slide down the inclined screen. […]

neuromuscular junction [2] = assay type: in vivo; settings: for Neuromuscular Junction Blocking Activity (ED90), Rabbit: Table I, rabbit paw twitch; for ED90 (potency: dose required to depress twitch tension to 10% of control): Table II, anesthetized rabbits, marginal ear vein; for Duration (time from injection until train-of-four recovered to 75%) / HR (% change from pre-drug heart rate) / onset T85% (time from injection until 85% of maximal drug effect) / BP (% change of pre-drug blood pressure): rabbit
From the text: In a large series of similar telaxants, the rabbit dose is typically 125% of that in mice. The mechanism of action was also confirmed in this test by observing train-of-four and tetanus fade, post-tetanic potentiation of single twitches and administration of the anticholinesterase drug neostig- mine which reverses the relaxation. Reversibility, rapid onset and short duration are important factors to the anesthesiologist.
The following is a brief description of the methodologies used in rabbits to describe neuromuscular blocking activity of the subject compounds. A more detailed description of these methods is presented in "Microcomputer Use in Measuring Onset, Duration, and Recovery from Non-Depolarizing Skeletal Muscle Relaxants in Rabbits", P. D. Thut et al, Drug development Research 5:182, 1985.
Male New Zealand white rabbits weighing between 2.5 and 3.4 kg were anesthetized with pentobarbital (30 mg/kg) and placed on their backs upon a 40° C. water filled temperature regulation pad. Following tracheostomy, the lungs were mechanically ventilated at 28 breaths per minute with room air, using an open system delivering 200 mi/stroke. This ventilation maintained pCO2 at 38 mmHG and pO2 at 85 mmHg. Direct arterial blood pressure was measured from the right common carotid artery. The test compounds were administered through a canula placed in the marginal ear vein. Each foreleg was taped to a cushioned plate held in a femur clamp attached to the spinal board rack. The left centeral digit of each paw was connected to a force displacement transducer for measurement of muscle tension. Nerve stimulation was provided by pairs of pin electrodes placed on both sides of the ulnar nerve at the elbow of both forearms. The right ulnar nerve was stimulated at […] for 0.5 msec duration. The left ulnar nerve was similarly stimulated, every 15 seconds, with addition of interspersed trains-of-four and tetanizing stimuli. The parameters reported in Table II are: potency (ED90), which is the dose required to depress twitch tension to 10% of its control value; onset (T85%), which is the time from injection unit 85% of the maximal drug effect is achieved, duration, which is the time from injection until the train-of-four has recovered to 75%, blood pressure (BP), which is the percentage change of pre-drug blood pressure; and heart rate (HR), which is the percentage change from pre-drug heart rate.

[3] = equi-efficacious dose, arterial blood pressure

C[N+](C)(C)C(Cc1ccccc1)C(=O)NCCCCCCNC(=O)C(Cc1ccccc1)[N+](C)(C)C.[I-].[I-] (stereo not drawn) [Compound A, Me3 N^+ -Phe-NH-(CH2)6 -NH-Phe-N^+ Me3 2I^-]
Neuromuscular Junction Blocking Activity (ED90), Mouse (neuromuscular junction [1]): 7.940 mg/kg

CC(C)CC(NC(=O)C(Cc1ccccc1)NC(=O)C(CC(C)C)[N+](C)(C)C)C(=O)NCCCCC[N+](C)(C)C.O=C([O-])C(F)(F)F.O=C([O-])C(F)(F)F (stereo not drawn) [Compound B, Me3 N^+ -Leu-Phe-Leu-NH-(CH2)5 -N^+ Me3 2(CF3 CO2)^=]
Neuromuscular Junction Blocking Activity (ED90), Mouse (neuromuscular junction [1]): 3.981 mg/kg

C[N+](C)(C)[C@@H](Cc1ccccc1)C(=O)NCCCCCCCCCCNC(=O)[C@H](Cc1ccccc1)[N+](C)(C)C [Compound C, bis-(N,N,N-trimethyl-L-phenylalanyl) -decane-1,10-diamide]
Neuromuscular Junction Blocking Activity (ED90), Rabbit (neuromuscular junction [2]): 4.408 mg/kg
ED90 (potency: dose required to depress twitch tension to 10% of control) (neuromuscular junction [2]): 4.41 mg/kg
Duration (time from injection until train-of-four recovered to 75%) (neuromuscular junction [2]; equi-efficacious dose): 17.4 min
HR (% change from pre-drug heart rate) (neuromuscular junction [2]; equi-efficacious dose): -0.80 % change
onset T85% (time from injection until 85% of maximal drug effect) (neuromuscular junction [2]; equi-efficacious dose): 37.60 s
BP (% change of pre-drug blood pressure) (neuromuscular junction [2]; [3]): -40.30 % change
Neuromuscular Junction Blocking Activity (ED90), Mouse (neuromuscular junction [1]): 1.259 mg/kg

CC(C)CC(NC(=O)C(Cc1ccccc1)[N+](C)(C)C)C(=O)NCC[N+](C)(C)C.O=C([O-])C(F)(F)F.O=C([O-])C(F)(F)F (stereo not drawn) [Compound D, Me3 N^+ -Phe-Leu-NH-(CH2)2 -N^+ Me3 2(CF3 CO2)^=]
Neuromuscular Junction Blocking Activity (ED90), Rabbit (neuromuscular junction [2]): 31.13 mg/kg
ED90 (potency: dose required to depress twitch tension to 10% of control) (neuromuscular junction [2]): 31.13 mg/kg
Duration (time from injection until train-of-four recovered to 75%) (neuromuscular junction [2]; equi-efficacious dose): 15.00 min
HR (% change from pre-drug heart rate) (neuromuscular junction [2]; equi-efficacious dose): 4.60 % change
onset T85% (time from injection until 85% of maximal drug effect) (neuromuscular junction [2]; equi-efficacious dose): 36.3 s
BP (% change of pre-drug blood pressure) (neuromuscular junction [2]; [3]): -28.30 % change
Neuromuscular Junction Blocking Activity (ED90), Mouse (neuromuscular junction [1]): 16.000 mg/kg

CC(C)CC(NC(=O)C(Cc1ccccc1)NC(=O)C(CC(C)C)[N+](C)(C)C)C(=O)NCCCCCCC[N+](C)(C)C [Compound E, N,N,N-trimethyl-L-leucyl-L-phenylalanyl-L-Leucine-(7-trimethylammonium) heptylamide]
Neuromuscular Junction Blocking Activity (ED90), Mouse (neuromuscular junction [1]): 1.995 mg/kg

COc1ccc(CC2c3cc(OC)c(OC)cc3CC[N+]2(C)CCC(=O)OCCCCCOC(=O)CC[N+]2(C)CCc3cc(OC)c(OC)cc3C2Cc2ccc(OC)c(OC)c2)cc1OC (stereo not drawn) [atracurium]
Neuromuscular Junction Blocking Activity (ED90), Rabbit (neuromuscular junction [2]): 0.050 mg/kg
ED90 (potency: dose required to depress twitch tension to 10% of control) (neuromuscular junction [2]): 0.05 mg/kg
Duration (time from injection until train-of-four recovered to 75%) (neuromuscular junction [2]; equi-efficacious dose): 14.30 min
onset T85% (time from injection until 85% of maximal drug effect) (neuromuscular junction [2]; equi-efficacious dose): 126.90 s
BP (% change of pre-drug blood pressure) (neuromuscular junction [2]; in vivo): -3.40 % change
HR (% change from pre-drug heart rate) (neuromuscular junction [2]; in vivo): -1.00 % change
Neuromuscular Junction Blocking Activity (ED90), Mouse (neuromuscular junction [1]): 0.631 mg/kg

CC(=O)O[C@H]1C[C@@H]2CC[C@@H]3[C@H](CC[C@@]4(C)[C@H]3C[C@H]([N+]3(C)CCCCC3)[C@@H]4OC(C)=O)[C@@]2(C)C[C@@H]1[N+]1(C)CCCCC1 [pancuronium]
ED90 (potency: dose required to depress twitch tension to 10% of control) (neuromuscular junction [2]): 0.02 mg/kg
Duration (time from injection until train-of-four recovered to 75%) (neuromuscular junction [2]; equi-efficacious dose): 32.50 min
HR (% change from pre-drug heart rate) (neuromuscular junction [2]; equi-efficacious dose): 0.00 % change
onset T85% (time from injection until 85% of maximal drug effect) (neuromuscular junction [2]; equi-efficacious dose): 147.50 s
BP (% change of pre-drug blood pressure) (neuromuscular junction [2]; [3]): 2.70 % change

CC(=O)O[C@H]1C[C@@H]2CC[C@@H]3[C@H](CC[C@@]4(C)[C@H]3C[C@H]([N+]3(C)CCCCC3)[C@@H]4OC(C)=O)[C@@]2(C)C[C@@H]1N1CCCCC1 [vecuronium]
Neuromuscular Junction Blocking Activity (ED90), Rabbit (neuromuscular junction [2]): 0.020 mg/kg
ED90 (potency: dose required to depress twitch tension to 10% of control) (neuromuscular junction [2]): 0.02 mg/kg
Duration (time from injection until train-of-four recovered to 75%) (neuromuscular junction [2]; equi-efficacious dose): 16.80 min
HR (% change from pre-drug heart rate) (neuromuscular junction [2]; equi-efficacious dose): -1.90 % change
onset T85% (time from injection until 85% of maximal drug effect) (neuromuscular junction [2]; equi-efficacious dose): 97.30 s
BP (% change of pre-drug blood pressure) (neuromuscular junction [2]; [3]): 1.10 % change
Neuromuscular Junction Blocking Activity (ED90), Mouse (neuromuscular junction [1]): 0.025 mg/kg
